Source: PMC4492759, “Pharmacological profiling of the hemodynamic effects of cannabinoid ligands: a combined in vitro and in vivo approach” (Pharmacology Research & Perspectives, 2015)

What was measured:
rat CB1 = target: T1, rat CB1 (Rattus norvegicus, UniProt P20272); assay: [35S]-GTPγS binding, membranes of HEK293s cells transfected with rat CB1; assay type: biochemical; details: agonist mode; mean ± SEM, at least three experiments; read-out: CB1 EC50, Rat
T1 construct: expressed in transfected cells; host or cells: HEK293s, transient transfection; membranes prepared
Method: (§1) Antagonist assays were performed similarly, with the addition of an EC80 concentration of CP55940 as a nonselective CB1/CB2 agonist in conjunction with the ligand to be tested. Nonspecific binding was determined in the presence of 20 μmol/L unlabeled GTPγS. The reaction was terminated by addition of ice-cold wash buffer (50 mmol/L Tris-HCl, 5 mmol/L MgCl2, 50 mmol/L NaCl; pH 7.4) followed by rapid filtration under vacuum through 96-well B-glass fiber filter plates (PerkinElmer, Waltham, Massachusetts, USA) using a Biomek FX (Beckman Coulter, Bromma, Sweden). The filter plates were dried (30 min at 50°C) before scintillation liquid (PerkinElmer) was added onto the filters and the bound radioactivity was determined using a scintillation counter (Wallac). Data were fitted with a four-parameter logistic fit using the equation y = A + (B − A)/1 + ((C/x)^D), where A is no activation, B is full activation, C is the EC50, and D is the Hill slope. All data were based on at least three independent experiments.

mouse GPR55 = target: T2, mouse GPR55 (Mus musculus, UniProt Q3UJF0); assay: [35S]-GTPγS binding, membranes of HEK293s cells transfected with mouse GPR55; assay type: biochemical; details: agonist mode; mean ± SEM, at least three experiments; read-out: GPR55 EC50, Mouse
T2 construct: expressed in transfected cells; host or cells: HEK293s, transient transfection; membranes prepared
Method: as §1, with “HEK293s cells were transiently transfected with cDNA encoding rat or mouse CB1 or GPR55 and membranes were prepared as previously described (Ryberg et al. [2007]). In short, agonist activities in [^35S]-GTPγS binding assays were determined by the addition of ligand at 30°C for 45 min in membrane buffer [50 mmol/L NaCl, 5 mmol/L MgCl2, 0.5 mmol/L EDTA, 25 mmol/L HEPES (all Sigma, Gillingham, Dorset, UK); pH 7.4] containing 0.05 μg μL^−1 of membrane protein with 0.01% BSA, 25 μmol/L guanosine 5′-diphosphate (GDP), 100 μmol/L dithiothreitol (DTT), and 0.53 nmol/L [^35S]GTPγS (PerkinElmer) in a final volume of 200 μL. Antagonist” for “Antagonist”

[1] = test system: anesthetized WT and GPR55−/− mice; assay: Hemodynamic responses (MABP, HR) in anesthetized WT and GPR55−/− mice; assay type: in vivo, mouse; details: O-1602 5–100 ng kg−1 i.v.; WT mice
Method: All experiments performed under terminal anesthesia were carried out following approval by Robert Gordon University Animal Ethics Panel. Anesthesia was induced in male SD rats (200–300 g) by sodium pentobarbital [60 mg kg^−1 intraperitoneal (i.p.) injection]. Male/female WT and GPR55^−/− mice (25–35 g) were anesthetized with a mixture of ketamine (120 mg kg^−1) and xylazine (16 mg kg^−1) via i.p. injection. For both species the trachea was cannulated to allow artificial respiration with room air when required (54 strokes min^−1 and tidal volume 1.5 mL 100 g^−1 for rats; 120 strokes min^−1 and tidal volume 100 μL 10 g^−1 for mice) and the left carotid artery and right jugular vein were cannulated for the measurement of arterial BP (MLT844 Physiological Pressure Transducer; AD Instruments, Oxford, UK) and drug administration, respectively. Core temperature was monitored continuously and maintained at 37–38°C with the aid of a Vetcare heated pad (Harvard Apparatus Ltd., Boston, Massachusetts, USA). Anesthesia was monitored by foot pinch reflex and maintained throughout by administration of additional doses of anesthetic (rats: 3–4 mg kg^−1 of sodium pentobarbital salt i.v.; mice: 50 μL 25 g^−1of ketamine/xylazine i.p.) every 40 min, or as required. […] Heart rate (HR) was calculated from the ECG and recorded throughout the entire experimental period. After a stabilization period of approximately 15 min dose–response experiments were carried out as described below.
As a preliminary assessment of the effects of ACEA on arterial BP, a single bolus intravenous dose (3 mg kg^−1; selected from the literature as a dose known to produce a depressor response) was given to anesthetized rats. […] The time interval between drug administrations was 10–15 min to allow BP values to return to predrug values.

[2] = test system: conscious WT, CB1−/− and GPR55−/− mice; assay: Blood pressure and heart rate responses in conscious mice (WT, CB1−/−, GPR55−/−); details: for HR bradycardic response - area above the curve / MABP depressor response - area above the curve: metoprolol pretreated
[3] = O-1602 5 mg kg−1, +CBD (5 mg kg−1)
[4] = O-1602 5 mg kg−1, column Control
[5] = O-1602 10 mg kg−1, +CBD (5 mg kg−1)
[6] = O-1602 10 mg kg−1, column Control
[7] = O-1602 15 mg kg−1, +CBD (5 mg kg−1)
[8] = O-1602 15 mg kg−1, column Control

T1 sequence (P20272 whole entry): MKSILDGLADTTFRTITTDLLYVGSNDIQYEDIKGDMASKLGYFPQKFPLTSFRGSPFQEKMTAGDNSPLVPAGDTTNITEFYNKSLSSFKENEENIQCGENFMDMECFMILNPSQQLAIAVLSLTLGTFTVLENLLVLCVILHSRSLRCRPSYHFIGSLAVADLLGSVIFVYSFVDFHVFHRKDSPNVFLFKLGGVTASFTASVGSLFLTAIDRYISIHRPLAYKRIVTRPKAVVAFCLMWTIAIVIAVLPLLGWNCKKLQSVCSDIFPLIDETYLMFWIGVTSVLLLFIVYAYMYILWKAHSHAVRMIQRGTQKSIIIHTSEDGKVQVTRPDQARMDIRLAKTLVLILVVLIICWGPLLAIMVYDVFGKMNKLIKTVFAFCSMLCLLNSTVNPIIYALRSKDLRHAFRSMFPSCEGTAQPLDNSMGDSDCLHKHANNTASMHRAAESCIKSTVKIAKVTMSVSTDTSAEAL
T2 sequence (Q3UJF0 whole entry): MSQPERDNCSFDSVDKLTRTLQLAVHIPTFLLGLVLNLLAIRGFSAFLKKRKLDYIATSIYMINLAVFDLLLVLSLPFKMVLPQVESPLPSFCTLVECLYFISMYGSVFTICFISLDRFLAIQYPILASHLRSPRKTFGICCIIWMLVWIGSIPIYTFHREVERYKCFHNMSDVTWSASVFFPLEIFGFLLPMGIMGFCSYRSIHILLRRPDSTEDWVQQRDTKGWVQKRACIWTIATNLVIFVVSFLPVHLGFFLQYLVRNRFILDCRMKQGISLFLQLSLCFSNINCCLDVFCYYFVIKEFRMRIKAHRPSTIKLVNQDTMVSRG

Structure (SMILES): C=C(C)[C@@H]1CCC(C)=C[C@H]1c1c(C)cc(O)cc1O [O-1602]
- EC50 (rat CB1): > 30000 nM
- EC50 (mouse GPR55): 12 ± 4 nM
- changes in MABP or HR over and above vehicle [1]: did not produce any changes
- HR bradycardic response - area above the curve ([2]; O-1602 5 mg kg−1, +AM281): 55.3 ± 20.9 arbitrary units
- MABP depressor response - area above the curve ([2]; O-1602 5 mg kg−1, +AM281): 64.6 ± 17.5 arbitrary units
- HR bradycardic response - area above the curve ([2]; O-1602 5 mg kg−1, +CBD & AM281): 154.8 ± 61.7 arbitrary units
- HR bradycardic response - area above the curve [2, 3]: 17.4 ± 11.7 arbitrary units
- MABP depressor response - area above the curve [2, 3]: 99.6 ± 25.8 arbitrary units
- MABP depressor response - area above the curve ([2]; O-1602 5 mg kg−1, +CBD and AM281): 73.3 ± 24.5 arbitrary units
- HR bradycardic response - area above the curve [2, 4]: 41.1 ± 20.8 arbitrary units
- MABP depressor response - area above the curve [2, 4]: 91.9 ± 38.2 arbitrary units
- HR bradycardic response - area above the curve ([2]; O-1602 10 mg kg−1, +AM281): 130.5 ± 20.5 arbitrary units
- MABP depressor response - area above the curve ([2]; O-1602 10 mg kg−1, +AM281): 95.2 ± 6.5 arbitrary units
- HR bradycardic response - area above the curve ([2]; O-1602 10 mg kg−1, +CBD & AM281): 298.2 ± 111.7 arbitrary units
- HR bradycardic response - area above the curve [2, 5]: 186.8 ± 42.1 arbitrary units
- MABP depressor response - area above the curve [2, 5]: 73.5 ± 17.8 arbitrary units
- MABP depressor response - area above the curve ([2]; O-1602 10 mg kg−1, +CBD and AM281): 114.6 ± 17.6 arbitrary units
- HR bradycardic response - area above the curve [2, 6]: 48.7 ± 25.4 arbitrary units
- MABP depressor response - area above the curve [2, 6]: 44.1 ± 9.6 arbitrary units
- HR bradycardic response - area above the curve ([2]; O-1602 15 mg kg−1, +AM281): 183.1 ± 50.9 arbitrary units
- MABP depressor response - area above the curve ([2]; O-1602 15 mg kg−1, +AM281): 101.5 ± 4.1 arbitrary units
- HR bradycardic response - area above the curve ([2]; O-1602 15 mg kg−1, +CBD & AM281): 286.6 ± 105.4 arbitrary units
- HR bradycardic response - area above the curve [2, 7]: 197.1 ± 17.1 arbitrary units
- MABP depressor response - area above the curve [2, 7]: 148.9 ± 17.1 arbitrary units
- MABP depressor response - area above the curve ([2]; O-1602 15 mg kg−1, +CBD and AM281): 119.7 ± 18.1 arbitrary units
- HR bradycardic response - area above the curve [2, 8]: 95.3 ± 6.5 arbitrary units
- MABP depressor response - area above the curve [2, 8]: 61.3 ± 10.9 arbitrary units
- effect on MABP ([2]; O-1602, conscious CB1−/− mice): dose-dependent depressor response
- effect on HR ([2]; O-1602 alone, highest dose tested, conscious WT mice): transient bradycardia
- effect on MABP ([2]; O-1602 alone, conscious WT mice): no effect
- depressor response ([2]; O-1602 in the presence of AM281 (10 mg kg−1), GPR55−/− mice): did not elicit a depressor response
